Each block holds one molecule with its values, some of them ahead of it.
Columns and labels:
[1] = test system: SNU-C4 xenografted nude mice; assay: Biodistribution study in SNU-C4 xenografted nude mice after intravenous injection; type: in vivo, mouse; conditions: for % ID/g Tumor: SNU-C4 tumor
Method: Human colon cancer cell line SNU-C4 was cultured in RPMI1640 media containing 10% fetal bovine serum and harvested using trypsin. The cells were washed using 10 mL PBS and centrifugation at 3,000 rpm. Each nude mouse was injected with 2×10^5 cells/0.1 mL on the right shoulder subcutaneously. On 13 days post-injection, each 10 μCi/0.1 mL of ^68Ga labeled agent was injected into the xenografted mice through the tail vein. The injected mice were sacrificed at 10 min, 30 min, 1 hr, and 2 hr, cancer, blood, muscle, heart, liver, spleen, stomach, intestine, and bone were obtained, weighed, and their radioactivities were counted. The results were expressed as percentages of injected dose per gram tissue (% ID/g).

Hep3B cells = assay: In vitro cell uptake, Hep3B (FIG. 1c); type: cell-based, human; conditions: control ^68Ga-NOTA
[2] = 10 min after intravenous injection
[3] = 30 min after intravenous injection
[4] = 1 hr after intravenous injection
[5] = 2 hr after intravenous injection

% ID/g Tumor [1, 2]: 3.14 ± 0.73 % ID/g | % ID/g Tumor [1, 3]: 1.83 ± 0.20 % ID/g | % ID/g Tumor [1, 4]: 0.93 ± 0.33 % ID/g | % ID/g Tumor [1, 5]: 0.54 ± 0.04 % ID/g | % ID/g Blood [1, 2]: 6.96 ± 0.18 % ID/g | % ID/g Blood [1, 3]: 3.21 ± 0.58 % ID/g | % ID/g Blood [1, 4]: 1.03 ± 0.34 % ID/g | % ID/g Blood [1, 5]: 0.22 ± 0.02 % ID/g | % ID/g Bone [1, 2]: 1.64 ± 0.48 % ID/g | % ID/g Bone [1, 3]: 0.97 ± 0.28 % ID/g | % ID/g Bone [1, 4]: 0.38 ± 0.12 % ID/g | % ID/g Bone [1, 5]: 0.28 ± 0.33 % ID/g | % ID/g Heart [1, 2]: 1.75 ± 0.12 % ID/g | % ID/g Heart [1, 3]: 0.77 ± 0.11 % ID/g | % ID/g Heart [1, 4]: 0.32 ± 0.09 % ID/g | % ID/g Heart [1, 5]: 0.06 ± 0.09 % ID/g | % ID/g Intestine [1, 2]: 1.87 ± 0.06 % ID/g | % ID/g Intestine [1, 3]: 1.00 ± 0.14 % ID/g | % ID/g Intestine [1, 4]: 0.64 ± 0.17 % ID/g | % ID/g Intestine [1, 5]: 0.42 ± 0.08 % ID/g | % ID/g Kidney [1, 2]: 11.96 ± 0.51 % ID/g | % ID/g Kidney [1, 3]: 7.85 ± 1.00 % ID/g | % ID/g Kidney [1, 4]: 6.52 ± 3.13 % ID/g | % ID/g Kidney [1, 5]: 7.50 ± 3.82 % ID/g | % ID/g Liver [1, 2]: 1.99 ± 0.03 % ID/g | % ID/g Liver [1, 3]: 1.35 ± 0.13 % ID/g | % ID/g Liver [1, 4]: 1.02 ± 0.16 % ID/g | % ID/g Liver [1, 5]: 0.93 ± 0.05 % ID/g | % ID/g Lung [1, 2]: 5.81 ± 0.54 % ID/g | % ID/g Lung [1, 3]: 2.82 ± 0.59 % ID/g | % ID/g Lung [1, 4]: 1.26 ± 0.28 % ID/g | % ID/g Lung [1, 5]: 0.61 ± 0.23 % ID/g | % ID/g Muscle [1, 2]: 1.69 ± 0.39 % ID/g | % ID/g Muscle [1, 3]: 0.92 ± 0.27 % ID/g | % ID/g Muscle [1, 4]: 0.32 ± 0.17 % ID/g | % ID/g Muscle [1, 5]: 0.10 ± 0.03 % ID/g | % ID/g Spleen [1, 2]: 1.63 ± 0.08 % ID/g | % ID/g Spleen [1, 3]: 0.95 ± 0.14 % ID/g | % ID/g Spleen [1, 4]: 0.64 ± 0.09 % ID/g | % ID/g Spleen [1, 5]: 0.53 ± 0.11 % ID/g | % ID/g Stomach [1, 2]: 2.37 ± 0.56 % ID/g | % ID/g Stomach [1, 3]: 1.00 ± 0.24 % ID/g | % ID/g Stomach [1, 4]: 0.43 ± 0.20 % ID/g | % ID/g Stomach [1, 5]: 0.16 ± 0.05 % ID/g
SMILES: O=C([O-])CN1CCNCCN(CC(=O)[O-])CCN(CC(=O)[O-])CC1.[68Ga+3] [^68Ga-DO3A, reference compound]

SMILES: NC(CCCCNC(=O)CN1CCN(CC(=O)[O-])CCN(CC(=O)[O-])CC1)C(=O)[O-].[68Ga+3] (stereo not drawn) [^68Ga-NOTA-lys]
tumor cell uptake versus control agents (Hep3B cells): significantly increase tumor cell uptakes
